Laboratory results taken from patent US20250195513A1, “DEGRADATION OF IRAK4 BY CONJUGATION OF IRAK4 INHIBITORS WITH E3 LIGASE LIGAND AND METHODS OF USE” (BeiGene, Ltd., priority 2022, published 2025).

How the values were obtained:
IRAK4 [1] = target: T1, IRAK4 (Homo sapiens, UniProt Q9NWZ3); assay: IRAK4 Degradation Assay (Karpas299, HTRF/TR-FRET); assay type: cell-based; conditions: Karpas-299 cells, 24 h treatment; for Dmax: maximum percentage of degradation, read-out: IRAK4 in Karpas-299 (24 h) Dmax (%); for DC50: read-out: IRAK4 in Karpas-299 (24 h) DC50
T1 construct: endogenous in cells; host or cells: Karpas299
T1 sequence (Q9NWZ3 1-460): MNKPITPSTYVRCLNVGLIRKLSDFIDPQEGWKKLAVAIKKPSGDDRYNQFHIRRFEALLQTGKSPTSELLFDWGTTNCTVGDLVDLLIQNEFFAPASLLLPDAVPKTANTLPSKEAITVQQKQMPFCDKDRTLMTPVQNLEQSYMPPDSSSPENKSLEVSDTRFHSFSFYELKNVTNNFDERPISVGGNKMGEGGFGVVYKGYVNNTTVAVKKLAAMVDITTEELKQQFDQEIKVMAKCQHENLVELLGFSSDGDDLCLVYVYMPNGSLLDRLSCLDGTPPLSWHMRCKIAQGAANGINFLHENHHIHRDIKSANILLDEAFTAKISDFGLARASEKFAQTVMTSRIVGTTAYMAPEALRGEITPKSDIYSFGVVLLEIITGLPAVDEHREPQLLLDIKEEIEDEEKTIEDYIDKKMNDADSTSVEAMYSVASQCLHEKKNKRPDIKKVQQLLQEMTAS
Method in brief: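 Karpas299 cells at 0.2 million per well were exposed to serially diluted compounds for 24 h or 5 h, then lysed. IRAK4 remaining in lysates was quantified by HTRF (665/620 nm) after overnight antibody incubation at room temperature. Percent degradation was fitted to a four-parameter curve to give IC50 (DC50).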

IRAK4 [2] = target: T1, IRAK4; assay: IRAK4 Degradation Assay with Human Serum (Karpas299, HTRF/TR-FRET); assay type: cell-based; conditions: Karpas-299 in human serum, 24 hrs treatment; for DC50: read-out: IRAK4 degradtion with human serum assay DC50; for Dmax: read-out: IRAK4 degradtion with human serum assay Dmax (%)
Procedure: IRAK4 degradation was measured using a TR-FRET-based method (Degorce, François, et al. Current chemical genomics. 2009, 3: 22). Karpas299 resuspended in Human serum AB (GEMINI, 100-512) were seeded into 96-well plates at the density of 0.2 million cells per well and then treated with a series dilution of compounds. After 24 hrs treatment, cells were pelleted via centrifugation and washed with PBS, add 40 μL lysis buffer (Cisbio) to each well after removal of the supernatant. Plates were then incubated at room temperature with shaking for 30 minutes. A total of 16 μL of cell lysates from each well of a 96-well plate was transferred to a 384-well white assay plate. IRAK4 level was quantitated using the HTRF kit as described by the manufacturer manual (Cisbio). FRET signals were measured using a PHERAstar FSX reader (BMG Labtech).
After treatment, add HTRF lysis buffer to each well; seal the plate and incubate 1 hour at room temperature on a plate shaker; Once the cells are lysed, 16 μL of cell lysate are transferred to a PE 384-well HTRF detection plate; 4 μL of pre-mixed HTRF antibodies are added to each well; Cover the plate with a plate sealer, spin 1000 rpm for 1 min, Incubate overnight at room temperature; Read on BMG PheraStar with HTRF protocol (337 nm-665 nm-620 nm).
The inhibition (degradation) percentage of the compound was calculated by the following equation: […]
The IC50 (DC50) value of a compound can be obtained by fitting the following equation
Wherein, X and Y are known values, and IC50, Hillslope, Top and Bottom are the parameters obtained by fitting with software. Y is the inhibition percentage (calculated from the equation), X is the concentration of the compound; IC50 is the concentration of the compound when the […] is reached. The smaller the IC50 value is, the stronger the inhibitory ability of the compound is. Vice versa, the higher the IC50 value is, the weaker the ability the inhibitory ability of the compound is; Hillslope represents the slope of the fitted curve, generally around 1 *; Bottom represents the minimum value of the curve obtained by data fitting, which is generally 0%±20%; Top represents the maximum value of the curve obtained by data fitting, which is generally 100%±20%. The experimental data were fitted by calculating and analyzing with Dotmatics data analysis software.

| Structure (SMILES) | Dmax (IRAK4 [1]) | DC50 (IRAK4 [1]) | DC50 (IRAK4 [2]) | Dmax (IRAK4 [2]) |
| --- | --- | --- | --- | --- |
| N#Cc1cnn2c(C(=O)Nc3cc4cn([C@H]5CC[C@H](N6CCN(C(=O)C7CN(c8cc(F)c([C@H]9CCC(=O)NC9=O)c(F)c8)C7)CC6)CC5)nc4c4c3OCO4)ccc2c1 [Example 355] | 95% | 0.4 nM | 75 nM | 73% |
| CC(=O)c1cc2nn([C@H]3CC[C@H](N4CCN(C5CN(c6cc(F)c([C@H]7CCC(=O)NC7=O)c(F)c6)C5)CC4)CC3)cc2cc1NC(=O)c1ccc2cc(C#N)cnn12 [Example 425, N-(6-acetyl-2-((1R,4r)-4-(4-(1-(4-((R)-2,6-dioxopiperidin-3-yl)-3,5-difluorophenyl)azetidin-3-yl)piperazin-1-yl)cyclohexyl)-2H-indazol-5-yl)-3-cyanopyrrolo[1,2-b]pyridazine-7-carboxamide] | 98% | 0.6 nM | 19 nM | 94% |
| CC(C)(O)c1cc2nn(C3CCN([C@@H]4CCN(C5CN(c6cc(F)c([C@H]7CCC(=O)NC7=O)c(F)c6)C5)CC4(F)F)CC3)cc2cc1NC(=O)c1ccc2cc(C#N)cnn12 [Example 342, 3-cyano-N-(2-((R)-1′-(1-(4-((R)-2,6-dioxopiperidin-3-yl)-3,5-difluorophenyl)azetidin-3-yl)-3′,3′-difluoro-[1,4′-bipiperidin]-4-yl)-6-(2-hydroxypropan-2-yl)-2H-indazol-5-yl)pyrrolo[1,2-b]pyridazine-7-carboxamide] | 102% | 1.5 nM | 14 nM | 98% |
| CC(C)(O)c1cc2nn([C@H]3CC[C@H](N4CCN(CCc5cc(F)c([C@H]6CCC(=O)NC6=O)c(F)c5)CC4)CC3)cc2cc1NC(=O)c1ccc2cc(Br)cnn12 [Example 414, 3-bromo-N-(2-((1R,4r)-4-(4-(4-((R)-2,6-dioxopiperidin-3-yl)-3,5-difluorophenethyl)piperazin-1-yl)cyclohexyl)-6-(2-hydroxypropan-2-yl)-2H-indazol-5-yl)pyrrolo[1,2-b]pyridazine-7-carboxamide] | 96% | 1.5 nM | 439 nM | 97% |
| COC[C@H]1CN([C@H]2CC[C@H](n3cc4cc(NC(=O)c5ccc6cc(C#N)cnn56)c(C(C)(C)O)cc4n3)CC2)CCN1C(=O)[C@@H]1CCN(c2cc(F)c([C@H]3CCC(=O)NC3=O)c(F)c2)C1 [Example 313, 3-cyano-N-(2-((1R,4r)-4-((R)-4-((R)-1-(4-((R)-2,6-dioxopiperidin-3-yl)-3,5-difluorophenyl)pyrrolidine-3-carbonyl)-3-(methoxymethyl)piperazin-1-yl)cyclohexyl)-6-(2-hydroxypropan-2-yl)-2H-indazol-5-yl)pyrrolo[1,2-b]pyridazine-7-carboxamide] | 98% | 0.3 nM | 24 nM | 96% |
| CC(C)(O)c1cc2nn([C@H]3CC[C@H](N4CCN(C5CCN(c6cc(F)c([C@H]7CCC(=O)NC7=O)c(F)c6)CC5)C[C@@H]4CO)CC3)cc2cc1NC(=O)c1ccc2cc(C#N)cnn12 [Example 399, 3-cyano-N-(2-((1R,4r)-4-((R)-4-(1-(4-((R)-2,6-dioxopiperidin-3-yl)-3,5-difluorophenyl)piperidin-4-yl)-2-(hydroxymethyl)piperazin-1-yl)cyclohexyl)-6-(2-hydroxypropan-2-yl)-2H-indazol-5-yl)pyrrolo[1,2-b]pyridazine-7-carboxamide] | 96% | 0.5 nM | 11 nM | 99% |
| CC(C)(O)c1cc2nn([C@H]3CC[C@H](N4CCN(C(=O)C5CCN(c6ccc7c(c6)C(=O)N(C6CCC(=O)NC6=O)C7=O)CC5)CC4)CC3)cc2cc1NC(=O)c1ccc2cc(C#N)cnn12 (stereo partly shown) [Example 429, 3-cyano-N-(2-((1r,4r)-4-(4-(1-(2-(2,6-dioxopiperidin-3-yl)-1,3-dioxoisoindolin-5-yl)piperidine-4-carbonyl)piperazin-1-yl)cyclohexyl)-6-(2-hydroxypropan-2-yl)-2H-indazol-5-yl)pyrrolo[1,2-b]pyridazine-7-carboxamide] | 97% | 1 nM | 32 nM | 94% |
